Assay results: publication PMC12713628 (2025)
Read-outs that look alike come from different tables or passages of the source.

How the values were obtained:
Test in all cases: ITC
[1] = tested on: CS-R5MP (DNA, aptamer) GGCTCTCGGGACGACGGGGATTTTTGGTGCACTATGTGGTTCGTTCGGGGTGGGCTGCGTTCTCCATTCTGG; settings: one-site fit
[2] = tested on: CS-R7MP-T (DNA, aptamer) CGGGACGACGGGGATTTTATTTGCACTATGTGGCTCGTTCGGGGTGTGCTGCGTTCTCCATTCTGG; settings: one-site fit
[3] = tested on: AI-TES-R3R5HD-T (DNA, aptamer) GGACGACGGGGATTTGGGGTTTTCTATGTTTTTCGTCCTTTTTTTGCTGCGTTCTCCATTCTGG
[4] = one-site fit, aptamer identified from Figure 3e legend

## C[C@]12CCC(=O)C=C1CC[C@@H]1[C@@H]2[C@@H](O)C[C@@]2(C)[C@H]1CC[C@]2(O)C(=O)CO
[1]
  KD: ~ 2.41 μM
[2]
  KD: 5.1 µM

## C[C@]12CC[C@H]3[C@@H](CCC4=CC(=O)CC[C@@]43C)[C@@H]1CC[C@@H]2O
[3]
  KD: 0.313 µM

## C[C@]12CC[C@@H]3c4ccc(O)cc4CC[C@H]3[C@@H]1CC[C@@H]2O
[3]; [4]
  KD: 6.22 µM

## CC(=O)[C@H]1CC[C@H]2[C@@H]3CCC4=CC(=O)CC[C@]4(C)[C@H]3CC[C@]12C
[3]; [4]
  KD: 9.38 µM
